Where a SMILES comes first, the peptide text is derived from it.
Tests used:
Type in all cases: functional
[1] = tested on: Staphylococcus aureus; test: Antibacterial activity against Staphylococcus aureus ATCC 25923 incubated for 18 hrs by visual inspection method
[2] = tested on: Staphylococcus epidermidis; test: Antibacterial activity against Staphylococcus epidermidis ATCC 12228 incubated for 18 hrs by visual inspection method
[3] = tested on: Escherichia coli; test: Antibacterial activity against Escherichia coli ATCC 25922 incubated for 18 hrs by visual inspection method
[4] = tested on: Bacillus subtilis; test: Antibacterial activity against Bacillus subtilis ATCC 23857 incubated for 18 hrs by visual inspection method
[5] = tested on: Acinetobacter baumannii; test: Antibacterial activity against Acinetobacter baumannii ATCC 19606 incubated for 18 hrs by visual inspection method
[6] = tested on: Klebsiella pneumoniae; test: Antibacterial activity against Klebsiella pneumoniae ATCC 700603 incubated for 18 hrs by visual inspection method

Row | Compound | MIC [1] [µg/mL] | MIC [2] [µg/mL] | MIC [3] [µg/mL] | MIC [4] [µg/mL] | MIC [5] [µg/mL] | MIC [6] [µg/mL]
1 | CC[C@H](C)[C@H](NC(=O)[C@H](CCCCN)NC(=O)[C@H](Cc1c[nH]c2ccccc12)NC(=O)[C@H](C)NC(=O)[C@@H]1CCCN1C(=O)[C@H]1CCCN1C(=O)[C@@H](CC(C)C)NC(=O)[C@H](N)C(C)C)C(=O)N[C@@H](CCCCN)C(=O)N[C@@H](CCCCN)C(=O)NCC(=O)N[C@@H](Cc1ccccc1)C(=O)N[C@@H](CCC(N)=O)C(N)=O | > 60 | > 60 | > 60 | > 60 | > 60 | > 60
2 | CC[C@H](C)[C@H](NC(=O)CNC(=O)[C@@H](NC(=O)[C@H](Cc1ccccc1)NC(=O)[C@@H](NC(=O)[C@H](Cc1c[nH]cn1)NC(=O)[C@H](Cc1c[nH]c2ccccc12)NC(=O)[C@@H](NC(=O)[C@@H]1CCCN1)[C@@H](C)O)[C@@H](C)CC)[C@@H](C)CC)C(=O)N[C@@H](Cc1c[nH]c2ccccc12)C(=O)N[C@@H](CO)C(=O)N[C@@H](CS)C(=O)N[C@@H](Cc1c[nH]c2ccccc12)C(N)=O (H-PTWHIFIGIWSCW-NH2) | > 60 | > 60 | > 60 | > 60 | > 60 | > 60
3 | CSCC[C@H](NC(=O)[C@H](Cc1c[nH]c2ccccc12)NC(=O)[C@H](CCSC)NC(=O)[C@H](Cc1c[nH]c2ccccc12)NC(=O)[C@@H](NC(=O)[C@H](Cc1c[nH]c2ccccc12)NC(=O)[C@H](Cc1c[nH]c2ccccc12)NC(=O)[C@H](CCSC)NC(=O)[C@H](CCCCN)NC(=O)[C@H](CS)NC(=O)CNC(=O)[C@H](Cc1ccccc1)NC(=O)[C@@H](N)CO)C(C)C)C(N)=O (H-SFGCKMWWVWMWM-NH2) | > 60 | > 60 | > 60 | > 60 | > 60 | > 60
4 | CC[C@H](C)[C@H](NC(=O)[C@H](CC(C)C)NC(=O)[C@H](CS)NC(=O)[C@@H]1CCCN1C(=O)[C@H](CC(C)C)NC(=O)[C@@H](NC(=O)[C@H](CS)NC(=O)[C@H](Cc1ccccc1)NC(=O)[C@@H](N)Cc1c[nH]c2ccccc12)[C@@H](C)CC)C(=O)N[C@@H](Cc1ccccc1)C(=O)N[C@@H](CCCCN)C(=O)N[C@@H](Cc1c[nH]c2ccccc12)C(=O)N[C@@H](CCC(N)=O)C(N)=O (H-WFCILPCLIFKWQ-NH2) | > 60 | > 60 | > 60 | > 60 | > 60 | > 60
5 | GRAMICIDIN | 1.88 | 3.75 |  | 3.75 |  | 

The next lines start with the values.

Row | MIC [1] [µg/mL] | MIC [2] [µg/mL] | MIC [3] [µg/mL] | MIC [4] [µg/mL] | MIC [5] [µg/mL] | MIC [6] [µg/mL] | Compound
6 | > 60 | > 60 | > 60 | > 60 | > 60 | > 60 | CC[C@H](C)[C@H](N)C(=O)N[C@H](C(=O)N[C@@H](Cc1ccccc1)C(=O)N[C@@H](CC(C)C)C(=O)N[C@H](C(=O)N[C@@H](CO)C(=O)NCC(=O)N[C@@H](Cc1ccccc1)C(=O)N[C@@H](CCCCN)C(=O)N[C@@H](CS)C(=O)N[C@@H](Cc1ccccc1)C(=O)N[C@@H](CCCCN)C(=O)NCC(N)=O)[C@@H](C)CC)C(C)C (H-IVFLISGFKCFKG-NH2)
7 | > 60 | > 60 | > 60 | > 60 | > 60 | > 60 | CC[C@H](C)[C@H](NC(=O)[C@H](C)NC(=O)[C@H](Cc1c[nH]c2ccccc12)NC(=O)[C@H](CCCCN)NC(=O)[C@H](C)NC(=O)CNC(=O)[C@@H](NC(=O)[C@@H](N)CO)[C@@H](C)CC)C(=O)N[C@@H](Cc1c[nH]c2ccccc12)C(=O)N[C@@H](Cc1c[nH]c2ccccc12)C(=O)N[C@@H](Cc1c[nH]c2ccccc12)C(=O)N[C@@H](CCSC)C(=O)N[C@H](C(N)=O)C(C)C (H-SIGAKWAIWWWMV-NH2)
8 | > 60 | > 60 | > 60 | > 60 | > 60 | > 60 | CC(C)C[C@H](NC(=O)[C@H](CCCCN)NC(=O)[C@H](CS)NC(=O)[C@H](CS)NC(=O)[C@@H](NC(=O)CNC(=O)[C@@H](NC(=O)[C@H](Cc1ccccc1)NC(=O)[C@H](CCC(N)=O)NC(=O)[C@H](CS)NC(=O)[C@@H](N)Cc1c[nH]c2ccccc12)C(C)C)C(C)C)C(=O)N[C@@H](CS)C(=O)N[C@H](C(N)=O)C(C)C (H-WCQFVGVCCKLCV-NH2)
